± gives the expanded uncertainty stated by the source.
Assay: xn = mol fraction of the nth substance listed
Settings: Liquid, Vibrating tube method

CCCCCCCCCC [decane] + CCO
mass density (303.2 K, 100 kPa, x2 = 0.25): 726.4 ± 0.3 kg/m3 | mass density (303.2 K, 100 kPa, x2 = 0.5): 732.8 ± 0.3 kg/m3 | mass density (303.2 K, 100 kPa, x2 = 0.75): 746.3 ± 0.3 kg/m3 | mass density (303.2 K, 1000 kPa, x2 = 0.25): 727.2 ± 0.3 kg/m3 | mass density (303.2 K, 1000 kPa, x2 = 0.5): 733.7 ± 0.3 kg/m3 | mass density (303.2 K, 1000 kPa, x2 = 0.75): 747.2 ± 0.3 kg/m3 | mass density (303.2 K, 2000 kPa, x2 = 0.25): 728 ± 0.3 kg/m3 | mass density (303.2 K, 2000 kPa, x2 = 0.5): 734.5 ± 0.3 kg/m3 | mass density (303.2 K, 2000 kPa, x2 = 0.75): 748.1 ± 0.3 kg/m3 | mass density (303.2 K, 3000 kPa, x2 = 0.25): 728.8 ± 0.3 kg/m3 | mass density (303.2 K, 3000 kPa, x2 = 0.5): 735.4 ± 0.3 kg/m3 | mass density (303.2 K, 3000 kPa, x2 = 0.75): 749 ± 0.3 kg/m3 | mass density (303.2 K, 4000 kPa, x2 = 0.25): 729.6 ± 0.3 kg/m3 | mass density (303.2 K, 4000 kPa, x2 = 0.5): 736.3 ± 0.3 kg/m3 | mass density (303.2 K, 4000 kPa, x2 = 0.75): 749.8 ± 0.3 kg/m3 | mass density (303.2 K, 5000 kPa, x2 = 0.25): 730.4 ± 0.4 kg/m3 | mass density (303.2 K, 5000 kPa, x2 = 0.5): 737.1 ± 0.3 kg/m3 | mass density (303.2 K, 5000 kPa, x2 = 0.75): 750.7 ± 0.3 kg/m3 | mass density (303.2 K, 6000 kPa, x2 = 0.25): 731.3 ± 0.4 kg/m3 | mass density (303.2 K, 6000 kPa, x2 = 0.5): 738 ± 0.4 kg/m3 | mass density (303.2 K, 6000 kPa, x2 = 0.75): 751.6 ± 0.3 kg/m3 | mass density (303.2 K, 7000 kPa, x2 = 0.25): 732.1 ± 0.4 kg/m3 | mass density (303.2 K, 7000 kPa, x2 = 0.5): 738.8 ± 0.4 kg/m3 | mass density (303.2 K, 7000 kPa, x2 = 0.75): 752.4 ± 0.3 kg/m3 | mass density (303.2 K, 8000 kPa, x2 = 0.25): 732.9 ± 0.4 kg/m3 | mass density (303.2 K, 8000 kPa, x2 = 0.5): 739.7 ± 0.4 kg/m3 | mass density (303.2 K, 8000 kPa, x2 = 0.75): 753.3 ± 0.3 kg/m3 | mass density (303.2 K, 9000 kPa, x2 = 0.25): 733.7 ± 0.4 kg/m3 | mass density (303.2 K, 9000 kPa, x2 = 0.5): 740.5 ± 0.4 kg/m3 | mass density (303.2 K, 9000 kPa, x2 = 0.75): 754.1 ± 0.3 kg/m3 | mass density (303.2 K, 10000 kPa, x2 = 0.25): 734.5 ± 0.4 kg/m3 | mass density (303.2 K, 10000 kPa, x2 = 0.5): 741.3 ± 0.4 kg/m3 | mass density (303.2 K, 10000 kPa, x2 = 0.75): 755 ± 0.3 kg/m3 | mass density (323.2 K, 100 kPa, x2 = 0.25): 709.6 ± 0.3 kg/m3 | mass density (323.2 K, 100 kPa, x2 = 0.5): 715.8 ± 0.3 kg/m3 | mass density (323.2 K, 100 kPa, x2 = 0.75): 728.5 ± 0.3 kg/m3 | mass density (323.2 K, 1000 kPa, x2 = 0.25): 710.3 ± 0.3 kg/m3 | mass density (323.2 K, 1000 kPa, x2 = 0.5): 716.7 ± 0.3 kg/m3 | mass density (323.2 K, 1000 kPa, x2 = 0.75): 729.5 ± 0.3 kg/m3 | mass density (323.2 K, 2000 kPa, x2 = 0.25): 711.2 ± 0.3 kg/m3 | mass density (323.2 K, 2000 kPa, x2 = 0.5): 717.7 ± 0.3 kg/m3 | mass density (323.2 K, 2000 kPa, x2 = 0.75): 730.6 ± 0.3 kg/m3 | mass density (323.2 K, 3000 kPa, x2 = 0.25): 712.2 ± 0.3 kg/m3 | mass density (323.2 K, 3000 kPa, x2 = 0.5): 718.6 ± 0.3 kg/m3 | mass density (323.2 K, 3000 kPa, x2 = 0.75): 731.5 ± 0.3 kg/m3 | mass density (323.2 K, 4000 kPa, x2 = 0.25): 713.1 ± 0.4 kg/m3 | mass density (323.2 K, 4000 kPa, x2 = 0.5): 719.6 ± 0.3 kg/m3 | mass density (323.2 K, 4000 kPa, x2 = 0.75): 732.6 ± 0.3 kg/m3 | mass density (323.2 K, 5000 kPa, x2 = 0.25): 714 ± 0.4 kg/m3 | mass density (323.2 K, 5000 kPa, x2 = 0.5): 720.5 ± 0.3 kg/m3 | mass density (323.2 K, 5000 kPa, x2 = 0.75): 733.5 ± 0.3 kg/m3 | mass density (323.2 K, 6000 kPa, x2 = 0.25): 714.9 ± 0.4 kg/m3 | mass density (323.2 K, 6000 kPa, x2 = 0.5): 721.5 ± 0.3 kg/m3 | mass density (323.2 K, 6000 kPa, x2 = 0.75): 734.5 ± 0.3 kg/m3 | mass density (323.2 K, 7000 kPa, x2 = 0.25): 715.8 ± 0.4 kg/m3 | mass density (323.2 K, 7000 kPa, x2 = 0.5): 722.4 ± 0.3 kg/m3 | mass density (323.2 K, 7000 kPa, x2 = 0.75): 735.4 ± 0.3 kg/m3 | mass density (323.2 K, 8000 kPa, x2 = 0.25): 716.8 ± 0.4 kg/m3 | mass density (323.2 K, 8000 kPa, x2 = 0.5): 723.3 ± 0.4 kg/m3 | mass density (323.2 K, 8000 kPa, x2 = 0.75): 736.4 ± 0.3 kg/m3 | mass density (323.2 K, 9000 kPa, x2 = 0.25): 717.7 ± 0.4 kg/m3 | mass density (323.2 K, 9000 kPa, x2 = 0.5): 724.2 ± 0.4 kg/m3 | mass density (323.2 K, 9000 kPa, x2 = 0.75): 737.4 ± 0.4 kg/m3 | mass density (323.2 K, 10000 kPa, x2 = 0.25): 718.6 ± 0.4 kg/m3 | mass density (323.2 K, 10000 kPa, x2 = 0.5): 725.2 ± 0.4 kg/m3 | mass density (323.2 K, 10000 kPa, x2 = 0.75): 738.4 ± 0.4 kg/m3
